Measured values as given in PubChem BioAssay (NCI).
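Briefly, cells in 96-well plates were exposed to five compound concentrations for 48 h, and endpoints were estimated by linear interpolation. The concentration for 50% growth inhibition is given as GI50. TGI denotes the concentration required for complete inhibition of growth.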

Key:
Test in all cases: inhibition of tumour cell growth, NCI panel, 48 h
OVCAR-5 ovarian = tested on: OVCAR-5 ovarian
SK-MEL-28 melanoma = tested on: SK-MEL-28 melanoma
MDA-MB-435 = tested on: MDA-MB-435
T-47D breast = tested on: T-47D breast
MDA-MB-231 breast = tested on: MDA-MB-231 breast
SF-539 CNS = tested on: SF-539 CNS
SK-MEL-5 melanoma = tested on: SK-MEL-5 melanoma
SF-268 CNS = tested on: SF-268 CNS
TK-10 renal = tested on: TK-10 renal
RXF 393 renal = tested on: RXF 393 renal
HOP-62 NSCLC = tested on: HOP-62 NSCLC
IGROV1 ovarian = tested on: IGROV1 ovarian
LOX IMVI melanoma = tested on: LOX IMVI melanoma
UACC-62 melanoma = tested on: UACC-62 melanoma
OVCAR-3 ovarian = tested on: OVCAR-3 ovarian
SK-MEL-2 melanoma = tested on: SK-MEL-2 melanoma
M14 melanoma = tested on: M14 melanoma
U251 CNS = tested on: U251 CNS
HL-60(TB) leukemia = tested on: HL-60(TB) leukemia
PC-3 prostate = tested on: PC-3 prostate
A549 NSCLC = tested on: A549 NSCLC
KM12 colon = tested on: KM12 colon
OVCAR-8 ovarian = tested on: OVCAR-8 ovarian
SW-620 colon = tested on: SW-620 colon
MOLT-4 leukemia = tested on: MOLT-4 leukemia
OVCAR-4 ovarian = tested on: OVCAR-4 ovarian
CAKI-1 renal = tested on: CAKI-1 renal
COLO 205 colon = tested on: COLO 205 colon
SNB-19 CNS = tested on: SNB-19 CNS
SN12C renal = tested on: SN12C renal
NCI-H460 lung = tested on: NCI-H460 lung
BT-549 breast = tested on: BT-549 breast
RPMI-8226 leukemia = tested on: RPMI-8226 leukemia
EKVX NSCLC = tested on: EKVX NSCLC
NCI-H226 lung = tested on: NCI-H226 lung
A498 renal = tested on: A498 renal
UO-31 renal = tested on: UO-31 renal
HCT-116 colon = tested on: HCT-116 colon
CCRF-CEM leukemia = tested on: CCRF-CEM leukemia
ACHN renal = tested on: ACHN renal
HCC-2998 colon = tested on: HCC-2998 colon
NCI-H23 lung = tested on: NCI-H23 lung
SF-295 CNS = tested on: SF-295 CNS
NCI-H522 lung = tested on: NCI-H522 lung
MALME-3M melanoma = tested on: MALME-3M melanoma
HT29 colon = tested on: HT29 colon
HS 578T breast = tested on: HS 578T breast
SNB-75 CNS = tested on: SNB-75 CNS
HOP-92 NSCLC = tested on: HOP-92 NSCLC
UACC-257 melanoma = tested on: UACC-257 melanoma
786-0 renal = tested on: 786-0 renal
MCF7 breast = tested on: MCF7 breast
K-562 leukemia = tested on: K-562 leukemia
NCI/ADR-RES ovarian = tested on: NCI/ADR-RES ovarian
HCT-15 colon = tested on: HCT-15 colon
SK-OV-3 ovarian = tested on: SK-OV-3 ovarian
DU-145 prostate = tested on: DU-145 prostate

CC(=O)/C(=C\c1c(-c2ccccc2)[nH]c2ccccc12)S(C)(=O)=O
GI50 (OVCAR-5 ovarian): 13.9 µM | TGI (OVCAR-5 ovarian): > 100 µM | GI50 (SK-MEL-28 melanoma): 3.34 µM | TGI (SK-MEL-28 melanoma): > 100 µM | GI50 (MDA-MB-435): 0.313 µM | TGI (MDA-MB-435): 1.97 µM | GI50 (T-47D breast): 2.58 µM | TGI (T-47D breast): 26 µM | GI50 (MDA-MB-231 breast): 4.82 µM | TGI (MDA-MB-231 breast): > 73.9 µM | GI50 (SF-539 CNS): 1.89 µM | TGI (SF-539 CNS): 4.66 µM | GI50 (SK-MEL-5 melanoma): 1.87 µM | TGI (SK-MEL-5 melanoma): > 43 µM | GI50 (SF-268 CNS): 4.14 µM | TGI (SF-268 CNS): > 93.9 µM | GI50 (TK-10 renal): 8.21 µM | TGI (TK-10 renal): > 100 µM | GI50 (RXF 393 renal): 2.56 µM | TGI (RXF 393 renal): 8.54 µM | GI50 (HOP-62 NSCLC): 7.95 µM | TGI (HOP-62 NSCLC): > 43.5 µM | GI50 (IGROV1 ovarian): 6.88 µM | TGI (IGROV1 ovarian): > 54.9 µM | GI50 (LOX IMVI melanoma): 3.36 µM | TGI (LOX IMVI melanoma): > 66.3 µM | GI50 (UACC-62 melanoma): 3.17 µM | TGI (UACC-62 melanoma): > 100 µM | GI50 (OVCAR-3 ovarian): 2.33 µM | TGI (OVCAR-3 ovarian): 5.35 µM | GI50 (SK-MEL-2 melanoma): 5.19 µM | TGI (SK-MEL-2 melanoma): > 24.2 µM | GI50 (M14 melanoma): 1.64 µM | TGI (M14 melanoma): 5.58 µM | GI50 (U251 CNS): 2.79 µM | TGI (U251 CNS): > 63 µM | GI50 (HL-60(TB) leukemia): 3.51 µM | TGI (HL-60(TB) leukemia): 20.9 µM | GI50 (PC-3 prostate): 4.46 µM | TGI (PC-3 prostate): > 100 µM | GI50 (A549 NSCLC): 7.14 µM | TGI (A549 NSCLC): > 100 µM | GI50 (KM12 colon): 2.42 µM | TGI (KM12 colon): 19.2 µM | GI50 (OVCAR-8 ovarian): 5.09 µM | TGI (OVCAR-8 ovarian): > 100 µM | GI50 (SW-620 colon): 2.08 µM | TGI (SW-620 colon): > 100 µM | GI50 (MOLT-4 leukemia): 4.24 µM | TGI (MOLT-4 leukemia): > 100 µM | GI50 (OVCAR-4 ovarian): 3.71 µM | TGI (OVCAR-4 ovarian): > 100 µM | GI50 (CAKI-1 renal): 5.62 µM | TGI (CAKI-1 renal): > 100 µM | GI50 (COLO 205 colon): 2.7 µM | TGI (COLO 205 colon): 13.5 µM | GI50 (SNB-19 CNS): 3.3 µM | TGI (SNB-19 CNS): > 58.7 µM | GI50 (SN12C renal): 6.06 µM | TGI (SN12C renal): > 100 µM | GI50 (NCI-H460 lung): 2.78 µM | TGI (NCI-H460 lung): 10.7 µM | GI50 (BT-549 breast): 2.77 µM | TGI (BT-549 breast): > 100 µM | GI50 (RPMI-8226 leukemia): 2.95 µM | TGI (RPMI-8226 leukemia): 21.9 µM | GI50 (EKVX NSCLC): 6.34 µM | TGI (EKVX NSCLC): > 100 µM | GI50 (NCI-H226 lung): 13 µM | TGI (NCI-H226 lung): > 100 µM | GI50 (A498 renal): 3.88 µM | TGI (A498 renal): > 54.8 µM | GI50 (UO-31 renal): 5.3 µM | TGI (UO-31 renal): > 100 µM | GI50 (HCT-116 colon): 2.86 µM | TGI (HCT-116 colon): > 100 µM | GI50 (CCRF-CEM leukemia): 4.74 µM | TGI (CCRF-CEM leukemia): > 100 µM | GI50 (ACHN renal): 5.64 µM | TGI (ACHN renal): > 100 µM | GI50 (HCC-2998 colon): 6.61 µM | TGI (HCC-2998 colon): 33.9 µM | GI50 (NCI-H23 lung): 4 µM | TGI (NCI-H23 lung): > 100 µM | GI50 (SF-295 CNS): 3.85 µM | TGI (SF-295 CNS): > 61.4 µM | GI50 (NCI-H522 lung): 3.27 µM | TGI (NCI-H522 lung): > 25.7 µM | GI50 (MALME-3M melanoma): 4.72 µM | TGI (MALME-3M melanoma): > 100 µM | GI50 (HT29 colon): 1.6 µM | TGI (HT29 colon): > 40.1 µM | GI50 (HS 578T breast): 1.55 µM | TGI (HS 578T breast): 4.88 µM | GI50 (SNB-75 CNS): 1.45 µM | TGI (SNB-75 CNS): 5.2 µM | GI50 (HOP-92 NSCLC): 3.11 µM | TGI (HOP-92 NSCLC): > 75 µM | GI50 (UACC-257 melanoma): 24.1 µM | TGI (UACC-257 melanoma): > 100 µM | GI50 (786-0 renal): 3.44 µM | TGI (786-0 renal): > 35.8 µM | GI50 (MCF7 breast): 2.66 µM | TGI (MCF7 breast): > 100 µM | GI50 (K-562 leukemia): 0.671 µM | TGI (K-562 leukemia): > 100 µM | GI50 (NCI/ADR-RES ovarian): 1.8 µM | TGI (NCI/ADR-RES ovarian): 8.97 µM | GI50 (HCT-15 colon): 1.93 µM | TGI (HCT-15 colon): > 100 µM | GI50 (SK-OV-3 ovarian): 3.96 µM | TGI (SK-OV-3 ovarian): > 32.5 µM | GI50 (DU-145 prostate): 3.47 µM | TGI (DU-145 prostate): 15.5 µM
